Data as given in patent EP3974434B1, “MACROLIDE DERIVATIVES, PREPARATION METHOD AND APPLICATION THEREOF” (Zhejiang Hisun Pharmaceutical Co., Ltd., priority 2019, dated 2020).

How the values were obtained:
TRKA = biological target: T1, TRKA (Homo sapiens, UniProt P04629); test: HTRF KinEASE-TK kinase activity inhibition assay, TRKA; type: biochemical; details: ATP 100 µM
T1 construct: purchased Carna bioscience 08-186
Text: (§1) The following method was used to determine the inhibition degrees of the compounds of the present invention on the activity of recombinant human NTRK family kinase in vitro. In this method, HTRF®KinEASE-TK tyrosine kinase kit (article number: 62TK0PEB) of Cisbio company was used, and the principle of the kit was based on time-resolved fluorescence resonance energy transfer (TF-FRET), and the inhibition of the compounds on the activity of the NTRK kinase was reflected by determining a phosphorylation degree of a biotinylated polypeptide substrate mediated by NTRK kinase. For detailed experimental operation, please refer to the kit instruction. Recombinant human wild-type NTRK proteins were purchased from Carna bioscience (the article numbers were TRKA #08-186, TRKB #08-187 and TRKC #08-197 respectively), and recombinant human mutant NTRK proteins were purchased from SignalChem (the article numbers were TRKA G595R #N16-12BG-10, TRKA G667C # N16-12CG-10, and TRKC G623R # N18-12CH-10 respectively).
(§2) The experimental methods were operated according to the steps in the kit instruction, and were briefly described as follows: a test compound was first dissolved in DMSO to prepare a storage solution, and then diluted in gradient with a buffer provided in the kit. A final concentration of the test compound in the reaction system ranged from 1,000 nM to 0.004 nM. An ATP Km value concentration of each NTRK protein was determined by using an ATP solution diluted in gradient (Sangon Biotech (Shanghai) Co., Ltd., A600311). According to the Km value obtained, the ATP concentrations in the reaction system were set as 100 µM for TRKA, 10 µM for TRKB, 50 µM for TRKC, 7 µM for TRKA(G595R), 1 µM for TRKA(G667C) and 100 µM for TRKC(G623R). The reaction was carried out in a 384-well microplate. Firstly, the compound and a certain amount of corresponding NTRK protein were added to the wells and incubated for 5 minutes to 10 minutes at room temperature. Then, the ATP solution and the biotinylated polypeptide substrate solution were added to the reaction solution and incubated with shaking at room temperature for 60 minutes. Then, an anti-phosphorylated tyrosine antibody coupled with a europium compound and streptavidin coupled with modified allophycocyanin XL665 were added to the reaction, and continuously incubated with shaking at room temperature for 1 hour. After incubation, fluorescence intensity values of each well at an excitation wavelength of 304 nm, and emission wavelengths of 620 nm and 665 nM were determined in a TF-FRET mode on a microplate reader. Compared with the fluorescence intensity ratio of a control group (0.1% DMSO), the percentage inhibition rates of the compound at each concentration were calculated, and the IC50 value of the compound was obtained by performing nonlinear regression analysis for logarithmic value of the compound concentration - inhibition rate by GraphPad Prism 5 software, which can be seen in Table 1. Table 1 IC50 data of the compounds of the present invention on TRK enzyme activity inhibition

TRKB = biological target: T2, TRKB (Homo sapiens, UniProt Q16620); test: HTRF KinEASE-TK kinase activity inhibition assay, TRKB; type: biochemical; details: ATP 10 µM
T2 construct: purchased Carna bioscience 08-187
T2 sequence (Q16620 32-822): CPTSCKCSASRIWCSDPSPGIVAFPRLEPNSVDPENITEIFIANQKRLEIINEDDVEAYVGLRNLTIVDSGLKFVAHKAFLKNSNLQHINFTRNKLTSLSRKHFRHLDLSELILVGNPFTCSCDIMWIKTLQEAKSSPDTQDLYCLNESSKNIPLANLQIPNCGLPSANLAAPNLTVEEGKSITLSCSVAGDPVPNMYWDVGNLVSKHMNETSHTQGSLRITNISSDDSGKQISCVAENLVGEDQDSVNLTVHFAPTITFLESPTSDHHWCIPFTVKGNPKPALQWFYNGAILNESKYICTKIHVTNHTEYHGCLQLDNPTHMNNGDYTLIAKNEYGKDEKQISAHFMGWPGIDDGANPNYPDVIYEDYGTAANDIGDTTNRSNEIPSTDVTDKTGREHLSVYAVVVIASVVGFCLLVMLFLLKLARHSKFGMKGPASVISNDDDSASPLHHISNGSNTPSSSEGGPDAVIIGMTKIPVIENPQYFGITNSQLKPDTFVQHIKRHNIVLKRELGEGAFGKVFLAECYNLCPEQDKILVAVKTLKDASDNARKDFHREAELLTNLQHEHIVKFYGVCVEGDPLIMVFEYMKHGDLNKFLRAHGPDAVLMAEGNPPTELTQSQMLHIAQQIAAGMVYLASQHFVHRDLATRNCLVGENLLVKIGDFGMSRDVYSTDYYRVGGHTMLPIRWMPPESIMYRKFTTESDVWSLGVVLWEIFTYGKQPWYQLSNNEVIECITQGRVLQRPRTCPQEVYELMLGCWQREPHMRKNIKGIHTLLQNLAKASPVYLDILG
Text: as §1, §2

TRKC = biological target: T3, TRKC (Homo sapiens, UniProt Q16288); test: HTRF KinEASE-TK kinase activity inhibition assay, TRKC; type: biochemical; details: ATP 50 µM
T3 construct: purchased Carna bioscience 08-197
T3 sequence (Q16288 32-839): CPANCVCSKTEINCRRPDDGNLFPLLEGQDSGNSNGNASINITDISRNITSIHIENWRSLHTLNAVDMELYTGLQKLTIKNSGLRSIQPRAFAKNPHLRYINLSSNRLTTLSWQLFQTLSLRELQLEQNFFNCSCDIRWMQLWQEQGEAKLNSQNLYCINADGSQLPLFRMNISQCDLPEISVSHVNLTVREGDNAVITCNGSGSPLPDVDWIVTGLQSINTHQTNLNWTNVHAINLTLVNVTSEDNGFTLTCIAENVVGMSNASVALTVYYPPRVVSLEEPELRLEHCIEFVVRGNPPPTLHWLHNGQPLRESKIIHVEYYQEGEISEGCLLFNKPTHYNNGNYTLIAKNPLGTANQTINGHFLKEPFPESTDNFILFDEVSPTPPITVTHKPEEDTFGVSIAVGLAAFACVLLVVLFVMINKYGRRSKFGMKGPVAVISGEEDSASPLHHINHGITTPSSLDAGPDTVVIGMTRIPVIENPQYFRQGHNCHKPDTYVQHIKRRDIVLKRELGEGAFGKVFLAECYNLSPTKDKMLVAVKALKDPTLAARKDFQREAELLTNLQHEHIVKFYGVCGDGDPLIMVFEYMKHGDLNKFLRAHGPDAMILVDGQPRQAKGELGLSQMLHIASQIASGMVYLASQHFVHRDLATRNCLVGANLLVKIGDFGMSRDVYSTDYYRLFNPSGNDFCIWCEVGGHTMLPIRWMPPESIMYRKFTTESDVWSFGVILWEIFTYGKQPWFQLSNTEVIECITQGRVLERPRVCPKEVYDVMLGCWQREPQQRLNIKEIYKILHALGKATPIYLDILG
Text: as §1, §2

TRKA(G595R) = biological target: T4, TRKA(G595R) (Homo sapiens, UniProt P04629, G595R); test: HTRF KinEASE-TK kinase activity inhibition assay, TRKA(G595R); type: biochemical; details: ATP 7 µM
T4 construct: purchased SignalChem N16-12BG-10
T4 sequence (P04629 33-796 G595R): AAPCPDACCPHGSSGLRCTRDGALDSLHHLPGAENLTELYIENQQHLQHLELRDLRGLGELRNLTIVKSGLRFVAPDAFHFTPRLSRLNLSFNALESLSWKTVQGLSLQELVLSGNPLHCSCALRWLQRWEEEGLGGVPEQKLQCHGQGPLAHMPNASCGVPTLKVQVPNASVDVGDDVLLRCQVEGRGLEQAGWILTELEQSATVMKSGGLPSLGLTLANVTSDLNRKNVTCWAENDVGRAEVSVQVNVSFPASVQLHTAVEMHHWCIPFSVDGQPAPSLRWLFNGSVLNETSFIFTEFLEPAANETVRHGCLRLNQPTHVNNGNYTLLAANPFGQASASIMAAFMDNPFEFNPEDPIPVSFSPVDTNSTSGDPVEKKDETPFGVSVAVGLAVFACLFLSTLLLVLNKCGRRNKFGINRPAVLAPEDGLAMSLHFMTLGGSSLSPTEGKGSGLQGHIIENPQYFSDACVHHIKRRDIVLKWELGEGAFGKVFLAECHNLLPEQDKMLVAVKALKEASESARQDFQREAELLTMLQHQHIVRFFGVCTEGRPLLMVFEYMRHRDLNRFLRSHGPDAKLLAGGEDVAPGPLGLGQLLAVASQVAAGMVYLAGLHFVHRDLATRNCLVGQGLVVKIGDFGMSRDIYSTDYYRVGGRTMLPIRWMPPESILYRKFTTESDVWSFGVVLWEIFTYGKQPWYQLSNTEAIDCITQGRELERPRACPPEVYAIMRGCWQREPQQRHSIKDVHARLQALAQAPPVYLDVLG
Text: as §1, §2

BAF3 LMNA-TRKA^G667C = test: Cell proliferation assay (CellTiter-Glo), BAF3 LMNA-TRKA G667C; type: cell-based; details: Mus musculus, 72 hours
Experimental: The following method was used to determine the effects of the compounds of the present invention on cell proliferation. BAF3 cells were purchased from National Infrastructure of Cell Line Resource (Beijing Headquarter). For TRKA, BAF3 cells were used to construct […] stable cell lines of BAF3 LMNA-TRKA^WT and BAF3 LMNA-TRKA^G667C.The above […] cell lines were used to determine the inhibition of the compounds on cell activities. The cells were cultured in an RPMI 1640 medium containing 10% fetal bovine serum, 100 U penicillin and 100 µg/mL streptomycin. The cells were cultured in a 5% CO2 incubator at 37°C. The activities of the cells were determined by CellTiter-Glo® Luminescent Cell Viability Assay kit (Promega, article number: G7573).
The experimental methods were operated according to the steps in the kit instruction, and were briefly described as follows: a test compound was first dissolved in DMSO to prepare a storage solution, and then diluted in gradient with the corresponding cell culture medium to prepare a test sample. A final concentration of the compound ranged from 1 µM to 0.15 nM. […] After the culture, 50 µL of CellTiter-Glo detection solution was added to each well, shaken for 5 minutes, and then stood for 10 minutes, and the luminescence values of each well were read on the microplate reader using a Luminance mode. […]

ALK = biological target: T5, ALK (Homo sapiens, UniProt Q9UM73); test: HTRF KinEASE-TK kinase activity inhibition assay, ALK; type: biochemical; details: ATP 1 µM
T5 construct: purchased SignalChem A19-11G-10
T5 sequence (Q9UM73 19-1620): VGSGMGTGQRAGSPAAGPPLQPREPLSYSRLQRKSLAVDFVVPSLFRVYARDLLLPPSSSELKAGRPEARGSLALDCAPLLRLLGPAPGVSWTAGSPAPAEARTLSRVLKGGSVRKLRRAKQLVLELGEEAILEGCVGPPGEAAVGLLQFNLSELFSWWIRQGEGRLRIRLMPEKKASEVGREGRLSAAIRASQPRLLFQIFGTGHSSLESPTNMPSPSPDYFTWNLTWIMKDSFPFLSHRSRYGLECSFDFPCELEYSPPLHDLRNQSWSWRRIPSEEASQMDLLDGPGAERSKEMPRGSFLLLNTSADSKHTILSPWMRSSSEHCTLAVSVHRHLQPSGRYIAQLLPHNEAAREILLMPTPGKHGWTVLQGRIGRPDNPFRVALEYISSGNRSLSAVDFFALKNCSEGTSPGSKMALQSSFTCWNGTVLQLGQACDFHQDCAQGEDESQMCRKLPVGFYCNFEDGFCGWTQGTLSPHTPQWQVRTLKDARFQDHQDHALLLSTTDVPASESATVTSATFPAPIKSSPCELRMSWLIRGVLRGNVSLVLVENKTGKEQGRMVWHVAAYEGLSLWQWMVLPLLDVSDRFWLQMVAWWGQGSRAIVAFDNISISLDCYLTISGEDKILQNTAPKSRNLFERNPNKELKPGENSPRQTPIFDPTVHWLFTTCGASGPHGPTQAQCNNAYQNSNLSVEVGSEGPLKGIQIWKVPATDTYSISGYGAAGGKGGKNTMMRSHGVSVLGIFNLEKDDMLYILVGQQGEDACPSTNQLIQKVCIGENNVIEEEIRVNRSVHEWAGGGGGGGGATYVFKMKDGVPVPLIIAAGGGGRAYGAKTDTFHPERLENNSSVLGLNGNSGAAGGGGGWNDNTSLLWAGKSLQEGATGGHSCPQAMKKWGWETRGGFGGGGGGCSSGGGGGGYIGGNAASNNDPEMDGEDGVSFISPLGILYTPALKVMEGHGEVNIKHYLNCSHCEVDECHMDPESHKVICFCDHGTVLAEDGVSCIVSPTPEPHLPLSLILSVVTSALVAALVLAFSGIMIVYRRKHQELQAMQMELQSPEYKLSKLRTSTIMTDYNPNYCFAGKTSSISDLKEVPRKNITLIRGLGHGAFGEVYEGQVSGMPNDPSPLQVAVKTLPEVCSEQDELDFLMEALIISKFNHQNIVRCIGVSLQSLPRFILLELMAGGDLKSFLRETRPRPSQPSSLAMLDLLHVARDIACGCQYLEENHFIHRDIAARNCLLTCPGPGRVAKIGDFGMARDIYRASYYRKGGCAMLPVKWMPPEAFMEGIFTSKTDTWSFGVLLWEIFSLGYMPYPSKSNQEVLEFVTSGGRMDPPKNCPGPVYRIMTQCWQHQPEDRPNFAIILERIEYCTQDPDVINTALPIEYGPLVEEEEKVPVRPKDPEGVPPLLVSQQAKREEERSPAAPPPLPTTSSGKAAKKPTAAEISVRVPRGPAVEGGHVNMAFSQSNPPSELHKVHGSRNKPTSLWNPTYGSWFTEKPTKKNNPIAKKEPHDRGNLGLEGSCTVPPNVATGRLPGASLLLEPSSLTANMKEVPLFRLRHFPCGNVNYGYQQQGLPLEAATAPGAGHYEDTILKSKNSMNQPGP
Text: The following method was used to determine the inhibition degrees of the compounds of the present invention on the activity of recombinant human ALK kinase in vitro. In this method, HTRF®KinEASE-TK tyrosine kinase kit (article No. 62TK0PEB) of Cisbio company was used, the principle of the kit was based on time-resolved fluorescence resonance energy transfer (TF-FRET), and the inhibition of the compounds on the activity of the ALK kinase was reflected by determining a phosphorylation degree of a biotinylated polypeptide substrate mediated by ALK kinase. […] The recombinant human ALK was purchased from SignalChem (article number was ALK#A19-11G-10).
The experimental flow was briefly described as follows: a test compound was first dissolved in DMSO to prepare a storage solution, and then diluted in gradient with a buffer provided in the kit. A final concentration of the test compound in the reaction system ranged from 1000 nM to 0.004 nM. An ATP Km value concentration of each ALK protein was determined by using an ATP solution diluted in gradient (Sangon Biotech (Shanghai) Co., Ltd., A600311). […] After incubation, fluorescence intensity values of each well at an excitation wavelength of 304 nm, and emission wavelengths of 620 nm and 665 nM were determined in a TF-FRET mode on a microplate reader, and the fluorescence intensity ratio 665/620 of each well was calculated. […]

T1 sequence (P04629 33-796): as the sequence (P04629 33-796 G595R) above, with R563G counted along it

Row | SMILES | IC50 (TRKA) | IC50 (TRKB) | IC50 (TRKC) | IC50 (TRKA(G595R)) | IC50 (BAF3 LMNA-TRKA^G667C) | IC50 (ALK)
1 | C[C@H]1Nc2ccn3ncc(c3n2)C(=O)NC[C@@]2(C)Cc3cc(F)cc1c3O2 [Example 8, (3R,11R)-6-fluoro-3,11-dimethyl-10-oxa-2,13,17,1 8,21-pentaazapentacyclo[13.5.2.1^8,11.0^4,9.0^18,22]tric osa-1(21),4,6,8,15(22),16,19-heptaen-14-one] | 0.56 nM | 0.45 nM | 0.22 nM | 2.03 nM | 77.6 nM | 2.02 nM
2 | C[C@H]1Nc2ccn3nc(N)c(c3n2)C(=O)NC[C@@]2(C)Cc3cc(F)cc1c3O2 [Example 25, (3R,11R)-16-amino-6-fluoro-3,11-dimethyl-10-oxa-2,13,17,18,21-pentaazapentacyclo[13.5.2.1^8,11.0^4,9. 0^18,22]tricosa-1(21),4,6,8,15(22),16,19-heptaen-14-one] | 0.82 nM | 1.17 nM | 0.7 nM | 5.4 nM | 46.7 nM | 1.93 nM
